Test results published in patent publication US9682955B2, “Quinazoline derivatives useful as CB-1 inverse agonists” (Janssen Pharmaceutica NV, priority 2014, dated 2017).

What was measured:
[1] = target: Human CB1R (Cannabanoid receptor 1) (Homo sapiens (Human), UniProt P21554); test: CB-1 in vitro cAMP assay (HTRF); assay type: cell-based; details: mean where tested more than once
Excerpt: (§1) CB1 and CB2 receptors are Gi-coupled GPCR. Activation of CB1 and CB2 receptors results in a decrease in cAMP production. An inverse agonist of the CB1 or CB2 receptor results in the opposite effect, an increase of cAMP production. The principle of this assay is based on HTRF® technology (Homogeneous Time-Resolved Fluorescence). The method is a competitive immunoassay between native cAMP produced by cells and the cAMP labeled with the fluorophore d2. The tracer binding is quantified by a Mab anti-cAMP labeled with Eu3+TBP-NHS Cryptate (supplied as part of the assay kit). The specific signal (i.e. energy transfer) is inversely proportional to the concentration of cAMP in the standard or sample.
(§2) Human CB1R (Cannabanoid receptor 1) was stably transfected in HEK-293 cells (DiscoveRx, cat: 93-0200C1). Human CB2R (Cannabanoid receptor 2) was stably transfected in HEK-293 cells (DiscoveRx, cat: 93-0201C1). Cell cultures were maintained in media: DMEM (Invitrogen Cat#12430-054) supplemented with 10% HI FBS (Invitrogen Cat#16140-071), 1% L-glutamine (Invitrogen Cat#25030-081), 0.2 mg/ml Hygromycin B (Invitrogen Cat#10687-010), 600 μg/mL G418 (Invitrogen Cat#10131-035), and 1× Penn/Strep (Invitrogen 15140-122). After cell expansion, aliquots were cryo-stored in media containing 5% DMSO (Pierce Cat#20684).
(§3) One day prior to experiments media was warmed to 37° C. and the cryo-stored cells were thawed in a 37° C. water bath. The cells were then added to media (10× volume) and the mixture was centrifugated at 1000 RPM for 5 min. The supernate was removed and the cells were re-suspended in media. A sample of the cell suspension was evaluated on a Cedex XS automated cell counter (Innovatis Systems) to determine viable cells/ml. Additional media was added to the cells to achieve a final cell density of 4E5 cells/mL. The cells were then plated into 384 well PDL white solid bottom plates (Greiner, Cat#781945) at 20 μL per well using a Multidrop (Thermo Scientific). Cells were removed from Row P (location of cAMP standards). Two columns of cells were plated into a clear bottom 384 well PDL coated plate (Greiner, Cat#781944) to view confluence the day of the assay. The cell plates were lidded and stored for 15 minutes in a hood, then transferred to an incubator (37° C., 5% CO2, 95% humidity) overnight.
(§4) DMSO was added to all wells of 384 well V bottom polystyrene plate (Greiner, Cat#781280) except to columns 1 and 13, rows O and P and wells M13-M23 and N13-N23. Test compounds (60 μL, 10 mM) were added to Column 1 and 13 (A1 through N1 and A13 through L13). Test compounds were serially diluted 1/3 by transferring and mixing 20 μl sample with 40 μL DMSO.
(§5) DMSO (40 μL) was added to wells of 384 well V bottom polystyrene plate: O2 through O11, M14 through M23, N14 through N23, and O14 through O23. AM630 (also known as [6-iodo-2-methyl-1-[2-(4-morpholinyl)ethyl]-1H-indol-3-yl](4-methoxyphenyl)-methanone, Cayman Chemical, Cat#10006974) (60 μL, 10 mM) was added to O1; and 1-(2,4-dichlorophenyl)-7-[(4-fluorophenyl)methylene]-4,5,6,7-tetrahydro-N-1-piperidinyl-1H-indazole-3-carboxamide (60 μL, 10 mM) was added to N13. The control was serially diluted 1/3 by transferring and mixing 20 μl sample with 40 μL DMSO. This process resulted 11 doses per control, 10 mM to […].
(§6) Cells plated the day prior to the assay in clear bottom plates were viewed on an inverse microscope to ensure confluency in the range of 60-75%. […]

[2] = target: Human CB2R (Cannabanoid receptor 2) (Homo sapiens (Human), UniProt P34972); test: CB-2 in vitro cAMP assay (HTRF); assay type: cell-based; details: mean where tested more than once
Excerpt: as §1, §2, §3, §4, §5, §6

Sequence of Human CB1R (Cannabanoid receptor 1) (P21554 whole entry): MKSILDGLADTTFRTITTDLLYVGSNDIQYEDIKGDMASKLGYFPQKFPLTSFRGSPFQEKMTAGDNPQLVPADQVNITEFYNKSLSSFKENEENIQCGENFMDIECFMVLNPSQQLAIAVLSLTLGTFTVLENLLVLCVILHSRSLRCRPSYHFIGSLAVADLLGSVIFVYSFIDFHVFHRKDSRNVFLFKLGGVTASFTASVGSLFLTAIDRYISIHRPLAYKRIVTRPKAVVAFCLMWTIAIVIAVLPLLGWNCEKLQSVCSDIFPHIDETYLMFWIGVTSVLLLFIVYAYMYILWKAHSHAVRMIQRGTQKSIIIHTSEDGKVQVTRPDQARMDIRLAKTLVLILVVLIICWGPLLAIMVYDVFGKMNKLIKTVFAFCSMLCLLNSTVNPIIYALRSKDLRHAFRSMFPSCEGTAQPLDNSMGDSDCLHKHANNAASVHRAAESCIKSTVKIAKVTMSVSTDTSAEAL
Sequence of Human CB2R (Cannabanoid receptor 2) (P34972 whole entry): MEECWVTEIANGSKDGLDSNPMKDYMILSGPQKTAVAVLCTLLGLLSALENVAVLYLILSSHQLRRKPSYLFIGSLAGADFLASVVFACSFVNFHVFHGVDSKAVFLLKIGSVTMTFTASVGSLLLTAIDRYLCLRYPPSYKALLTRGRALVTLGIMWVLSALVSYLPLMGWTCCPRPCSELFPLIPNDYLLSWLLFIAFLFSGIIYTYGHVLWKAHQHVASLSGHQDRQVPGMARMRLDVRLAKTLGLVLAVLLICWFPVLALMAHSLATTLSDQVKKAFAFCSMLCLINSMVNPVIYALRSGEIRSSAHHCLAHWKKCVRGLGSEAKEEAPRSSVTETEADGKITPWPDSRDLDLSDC

EC50 [1] [nM] | EC50 [2] [nM] | SMILES
4 | 1930 | OCC(CO)COc1nc(NCc2cccc(C(F)(F)F)c2)c2cc(C(c3ccc(Cl)cc3)c3ccc(Cl)cc3)ccc2n1 [Compound #49, 2-(((6-(bis(4-chlorophenyl)methyl)-4-((3-(trifluoromethyl)benzyl)amino)quinazolin-2-yl)oxy)methyl)propane-1,3-diol]
950 | > 10000 | O=C(O)c1ccc(C(=O)N2CCC(Nc3ncnc4ccc(C(c5ccc(Cl)cc5)c5ccc(Cl)cc5)cc34)CC2)cc1 [Compound #68, 4-(4-((6-(bis(4-chlorophenyl)methyl)quinazolin-4-yl)amino)piperidine-1-carbonyl)benzoic acid]
15 | > 10000 | CC(C)OC(=O)OCOC(=O)c1ccc(S(=O)(=O)N2CCC(Nc3ncnc4ccc(C(c5ccc(Cl)cc5)c5ccc(Cl)cc5)cc34)CC2)cc1 [Compound #64, ((Isopropoxycarbonyl)oxy)methyl 4-((4-((6-(bis(4-chlorophenyl)methyl)quinazolin-4-yl)amino)piperidin-1-yl)sulfonyl)benzoate]
4430 | > 10000 | O=C(O)c1cccc(CNc2ncnc3ccc(C(c4ccc(Cl)cc4)c4ccc(Cl)cc4)cc23)c1 [Compound #59, 3-(((6-(bis(4-chlorophenyl)methyl)quinazolin-4-yl)amino)methyl)benzoic acid]
191 | 150 | O=S(=O)(NC1CCN(c2ncnc3ccc(C(c4ccc(Cl)cc4)c4ccc(Cl)cc4)cc23)C1)C(F)(F)F (centres unmarked) [Compound #9, N-(1-(6-(bis(4-chlorophenyl)methyl)quinazolin-4-yl)pyrrolidin-3-yl)trifluoromethanesulfonamide]
19 | 434 | O=C(O)c1ccc(S(=O)(=O)N2CCC(Nc3ncnc4ccc(C(c5ccc(Cl)cc5)c5ccc(Cl)cc5)cc34)CC2)cc1Cl [Compound #23, 4-((4-((6-(bis(4-chlorophenyl)methyl)quinazolin-4-yl)amino)piperidin-1-yl)sulfonyl)-2-chlorobenzoic acid]
1120 | 8700 | O=C(O)c1ccc(CN2CCC(Nc3ncnc4ccc(C(c5ccc(Cl)cc5)c5ccc(Cl)cc5)cc34)C2)cc1 (centres unmarked) [Compound #14, 4-((3-((6-(bis(4-chlorophenyl)methyl)quinazolin-4-yl)amino)pyrrolidin-1-yl)methyl)benzoic acid]
15 | 371 | Oc1ccc(N2CCC(Nc3ncnc4ccc(C(c5ccc(Cl)cc5)c5ccc(Cl)cc5)cc34)CC2)cc1 [Compound #32, 4-(4-((6-(bis(4-chlorophenyl)methyl)quinazolin-4-yl)amino)piperidin-1-yl)phenol]
8 | 2850 | O=S(=O)(N1CCC(CNc2ncnc3ccc(C(c4ccc(Cl)cc4)c4ccc(Cl)cc4)cc23)CC1)C(F)(F)F [compound 135, 6-(bis(4-chlorophenyl)methyl)-N-((1-(trifluoromethylsulfonyl)piperidin-4-yl)methyl)quinazolin-4-amine]
7 | 2210 | O=C(CC(F)(F)F)N1CCC(Nc2ncnc3ccc(C(c4ccc(Cl)cc4)c4ccc(Cl)cc4)cc23)CC1 [Compound #133, 1-(4-((6-(bis(4-chlorophenyl)methyl)quinazolin-4-yl)amino)piperidin-1-yl)-3,3,3-trifluoropropan-1-one]
5 | 801 | O=S(=O)(N1CCC(Nc2ncnc3ccc(C(c4ccc(Cl)cc4)c4ccc(Cl)cc4)cc23)CC1)C(F)(F)F [Compound #145, 6-(bis(4-chlorophenyl)methyl)-N-(1-((trifluoromethyl)sulfonyl)piperidin-4-yl)quinazolin-4-amine]
8 | > 10000 | O=S(=O)(N1CCC(Nc2nc(C3CC3)nc3ccc(C(c4ccc(Cl)cc4)c4ccc(Cl)cc4)cc23)CC1)C(F)(F)F [Compound #108, 6-(bis(4-chlorophenyl)methyl)-2-cyclopropyl-N-(1-((trifluoromethyl)sulfonyl)piperidin-4-yl)quinazolin-4-amine]
818 | 3160 | O=C(O)c1cccc(N2CCC(Nc3ncnc4ccc(C(c5ccc(Cl)cc5)c5ccc(Cl)cc5)cc34)CC2)c1 [compound 95, 3-(4-(6-(bis(4-chlorophenyl)methyl)quinazolin-4-ylamino)piperidin-1-yl)benzoic acid]
20 | > 10000 | O=C(NCCCOc1ccc(CO)cc1)c1ccc(S(=O)(=O)N2CCC(Nc3ncnc4ccc(C(c5ccc(Cl)cc5)c5ccc(Cl)cc5)cc34)CC2)cc1 [Compound #26, 4-((4-((6-(bis(4-chlorophenyl)methyl)quinazolin-4-yl)amino)piperidin-1-yl)sulfonyl)-N-(3-(4-(hydroxymethyl)phenoxy)propyl)benzamide]
10 | 4700 | C[C@H](Nc1ncnc2ccc(C(c3ccc(Cl)cc3)c3ccc(Cl)cc3)cc12)c1cccc(C(F)(F)F)c1 (single isomer, unassigned) [Compound #112]
8 | 978 | O=S(=O)(N1CCC(Nc2ncnc3ccc(C(c4ccc(Cl)cc4)c4nccs4)cc23)CC1)C(F)(F)F (centres unmarked) [Compound #146, 6-((4-chlorophenyl)(thiazol-2-yl)methyl)-N-(1-((trifluoromethyl)sulfonyl)piperidin-4-yl)quinazolin-4-amine]
32 | 5690 | O=S(=O)(N1CCC(Nc2nc(O)nc3ccc(C(c4ccc(Cl)cc4)c4ccc(Cl)cc4)cc23)CC1)C(F)(F)F [Compound #114, 6-(bis(4-chlorophenyl)methyl)-4-((1-((trifluoromethyl)sulfonyl)piperidin-4-yl)amino)quinazolin-2-ol]
254 | > 10000 | CNc1nc(NC2CCN(S(=O)(=O)C(F)(F)F)CC2)c2cc(C(c3ccc(Cl)cc3)c3ccc(Cl)cc3)ccc2n1 [Compound #113, 6-(bis(4-chlorophenyl)methyl)-N2-methyl-N4-(1-((trifluoromethyl)sulfonyl)piperidin-4-yl)quinazoline-2,4-diamine]
227 | 917 | CS(=O)(=O)NCCOc1nc(NC2CCN(S(=O)(=O)c3ccc(C(=O)O)cc3)CC2)c2cc(C(c3ccc(Cl)cc3)c3ccc(Cl)cc3)ccc2n1 [Compound #33, 4-((4-((6-(bis(4-chlorophenyl)methyl)-2-(2-(methylsulfonamido)ethoxy)quinazolin-4-yl)amino)piperidin-1-yl)sulfonyl)benzoic acid]
75 | > 10000 | Nc1nc(NC2CCN(S(=O)(=O)C(F)(F)F)CC2)c2cc(C(c3ccc(Cl)cc3)c3ccc(Cl)cc3)ccc2n1 [Compound #107, 6-(bis(4-chlorophenyl)methyl)-N4-(1-((trifluoromethyl)sulfonyl)piperidin-4-yl)quinazoline-2,4-diamine]
894 | 998 | O=C(O)c1ccc(CCN2CCC(Nc3ncnc4ccc(C(c5ccc(Cl)cc5)c5ccc(Cl)cc5)cc34)CC2)cc1 [Compound #10, 4-(2-(4-((6-(bis(4-chlorophenyl)methyl)quinazolin-4-yl)amino)piperidin-1-yl)ethyl)benzoic acid]
343 | > 10000 | O=C(O)c1ccc(C(c2ccc(Cl)cc2)c2ccc3ncnc(NC4CCN(S(=O)(=O)C(F)(F)F)CC4)c3c2)cc1 (centres unmarked) [Compound #16, 4-((4-chlorophenyl)(4-((1-((trifluoromethyl)sulfonyl)piperidin-4-yl)amino)quinazolin-6-yl)methyl)benzoic acid]
